For one data set, the system named is Echinochloa crus-galli. In words: Paddy herbicidal activity test. The format is in vivo. The conditions noted are these: irrigated paddy pot, treated at 3.5 leaf stage of Echinochloa crus-galli, 30 days. In short, it runs like this:
(§1)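 Flooded paddy-soil pots (3 cm water) sown with weeds; rice at 2.0 leaf stage transplanted when Echinochloa reached 3.5 leaf stage, then diluted wettable powder dropped into water at prescribed rate per are. After 30 days in greenhouse (mean 30° C), growth inhibition vs untreated (efficacy) or vs complete kill (phytotoxicity) scored on 11 levels.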

The next data set has as its system Monochoria vaginalis. In words: Paddy herbicidal activity test. It counts as in vivo. The note with it: irrigated paddy pot, 30 days. The gist of the method: as §1
For another data set, the system named is Scirpus juncoides. The experiment in a line: Paddy herbicidal activity test. The format is in vivo. The note with it: irrigated paddy pot, 30 days. In short, it runs like this:
as §1

Another data set has as its system Rice plants. In words: Paddy herbicidal activity test, phytotoxicity to transplanted rice. It counts as in vivo. The note with it: rice transplanted at 2.0 leaf stage, 30 days. In short, it runs like this:
as §1

The subject of data set [1] is Amaranthus retroflexus. In words: Farming soil treatment test. The format is in vivo. The conditions noted are these: soil surface spray prior to weed growth, 30 days. How it is done:
(§2) Evaluation of herbicidal efficacy was carried out by comparing growth inhibition rate (%) with an untreated group, while evaluation of phytotoxicity was carried out by comparing growth inhibition rate (%) with the state of a complete eradication group, and were evaluated at 11 levels indicated below. [table] Field soil was filled into a 1/6000 are pot followed by seeding with Digitaria ciliaris, Chenopodium album and Amaranthus retroflexus and covering with soil. Wettable powder of compounds of formula (I) shown in Table 1 prepared in compliance with the preparation examples were diluted with water to the prescribed amount of chemical and uniformly sprayed onto each soil surface layer using 10 liters of sprayed water per are prior to weed growth following seeding. After treating for 30 days in a glass greenhouse at an average atmospheric temperature of 30° C., the herbicidal efficacy thereof was investigated. Evaluation of herbicidal efficacy was carried out in the same manner as the above-mentioned Test Example 1.

Data set [2] relates to Chenopodium album. The experiment in a line: Farming soil treatment test. It counts as in vivo. The conditions noted are these: soil surface spray prior to weed growth, 30 days. The protocol: as §2
The test system of data set [3] is Digitaria ciliaris. In words: Farming soil treatment test. The format is in vivo. The note with it: soil surface spray prior to weed growth, 30 days. How it is done: as §2
The subject of data set [4] is Amaranthus retroflexus. The experiment in a line: Weed foliar treatment test. The format is in vivo. The note with it: foliar spray, 3 weeks. The protocol:
(§3) Evaluation of herbicidal efficacy was carried out by comparing growth inhibition rate (%) with an untreated group, while evaluation of phytotoxicity was carried out by comparing growth inhibition rate (%) with the state of a complete eradication group, and were evaluated at 11 levels indicated below. [table] Soil was filled into a 1/6000 are pot followed by seeding with Digitaria ciliaris, Chenopodium album and Amaranthus retroflexus, covering with soil, and cultivating in a glass greenhouse at an average atmospheric temperature of 25° C. Wettable powder of Target Compound (I) shown in Table 1 prepared in compliance with the preparation examples were diluted with water to the prescribed amount of chemical and uniformly sprayed onto the weeds using 15 liters of sprayed water per are when Digitaria ciliaris had grown to the 1.0 to 2.0 leaf stage. After treating for 3 weeks in a glass greenhouse at an average atmospheric temperature of 25° C., the herbicidal efficacy thereof was investigated, Evaluation of herbicidal efficacy was carried out in the same manner as the above-mentioned Test Example 1.

Data set [5] has as its system Chenopodium album. In words: Weed foliar treatment test. It counts as in vivo. The conditions noted are these: foliar spray, 3 weeks. The protocol: as §3
The subject of data set [6] is Digitaria ciliaris. The experiment in a line: Weed foliar treatment test. It counts as in vivo. The note with it: foliar spray at 1.0 to 2.0 leaf stage of Digitaria ciliaris, 3 weeks. The protocol:
as §3

The source of these data is patent US9556183B2, “Substituted pyrazolylpyrazole derivative and use of same as herbicide” (KYOYU AGRI CO., LTD., priority 2013, dated 2017).

For `N#Cc1cnn(-c2nn3c(c2Cl)CCCC3)c1N(CC1CC1)C(=O)C(F)(F)F` [Compound 2, N-(1-(3-chloro-4,5,6,7-tetrahydropyrazolo[1,5-a]pyridin-2-yl)-4-cyanopyrazol-5-yl)-N-(cyclopropylmethyl)-2,2,2-trifluoroacetoamide], the melting point – broadly, the temperature of the solid-liquid transition – is 87.3 to 101 °C. For the same compound, in the data set with Echinochloa crus-galli (1g a.i./10a), the “herbicidal efficacy (growth inhibition rate level) Echinochloa crus-galli” value is reported as 9 (9: 90% to less than 100%). Moreover, the “herbicidal efficacy (growth inhibition rate level) Echinochloa crus-galli” value with Echinochloa crus-galli (5g a.i./10a) is 9 (9: 90% to less than 100%). Also, the “herbicidal efficacy (growth inhibition rate level) Monochoria vaginalis” value in the data set with Monochoria vaginalis (1g a.i./10a) is recorded as 8 (8: 80% to less than 90%). In addition, in the data set with Monochoria vaginalis (5g a.i./10a), the “herbicidal efficacy (growth inhibition rate level) Monochoria vaginalis” value is 9 (9: 90% to less than 100%). Further, the “herbicidal efficacy (growth inhibition rate level) Scirpus juncoides” value with Scirpus juncoides (1g a.i./10a) is recorded as 8 (8: 80% to less than 90%). In addition, in the data set with Scirpus juncoides (5g a.i./10a), the “herbicidal efficacy (growth inhibition rate level) Scirpus juncoides” value was 8 (8: 80% to less than 90%). Further, the “phytotoxicity (growth inhibition rate level) Rice plants” value in the data set with Rice plants (1g a.i./10a) is on record as 0 (0 (exponent): 0% to less than 10% (growth inhibition rate)). In the data set on Rice plants (5g a.i./10a), the “phytotoxicity (growth inhibition rate level) Rice plants” value is reported as 1 (1: 10% to less than 20%). Moreover, in the data set with Amaranthus retroflexus [1] (5g a.i./10a), the “herbicidal efficacy (growth inhibition rate level) Amaranthus retroflexus” value is 10 (10: 100%). In the data set with Amaranthus retroflexus [1] (10g a.i./10a), the “herbicidal efficacy (growth inhibition rate level) Amaranthus retroflexus” value is on record as 10 (10: 100%). Further, in the data set with Chenopodium album [2] (5g a.i./10a), the “herbicidal efficacy (growth inhibition rate level) Chenopodium album” value was 10 (10: 100%). The “herbicidal efficacy (growth inhibition rate level) Chenopodium album” value with Chenopodium album [2] (10g a.i./10a) was 10 (10: 100%). In the data set with Digitaria ciliaris [3] (5g a.i./10a), the “herbicidal efficacy (growth inhibition rate level) Digitaria ciliaris” value is 10 (10: 100%). Moreover, the “herbicidal efficacy (growth inhibition rate level) Digitaria ciliaris” value in the data set with Digitaria ciliaris [3] (10g a.i./10a) is reported as 10 (10: 100%). For the same compound, the “herbicidal efficacy (growth inhibition rate level) Amaranthus retroflexus” value in the data set with Amaranthus retroflexus [4] (5g a.i./10a) is 10 (10: 100%). Further, in the data set with Amaranthus retroflexus [4] (10g a.i./10a), the “herbicidal efficacy (growth inhibition rate level) Amaranthus retroflexus” value is listed as 10 (10: 100%). The “herbicidal efficacy (growth inhibition rate level) Chenopodium album” value with Chenopodium album [5] (5g a.i./10a) was 10 (10: 100%). In addition, the “herbicidal efficacy (growth inhibition rate level) Chenopodium album” value in the data set with Chenopodium album [5] (10g a.i./10a) was 10 (10: 100%). In addition, the “herbicidal efficacy (growth inhibition rate level) Digitaria ciliaris” value in the data set with Digitaria ciliaris [6] (5g a.i./10a) is given as 10 (10: 100%). In addition, the “herbicidal efficacy (growth inhibition rate level) Digitaria ciliaris” value in the data set with Digitaria ciliaris [6] (10g a.i./10a) was 10 (10: 100%).
As for `CC(Nc1c(C#N)cnn1-c1nn2c(c1Cl)CCCC2)C1CC1` (stereo not drawn) [Compound 9, 1-(3-chloro-4,5,6,7-tetrahydropyrazolo[1,5-a]pyridin-2-yl)-5-(1-cyclopropylethylamino)pyrazole-4-carbonitrile], the melting point is 104 to 108 °C. In addition, the “herbicidal efficacy (growth inhibition rate level) Echinochloa crus-galli” value in the data set with Echinochloa crus-galli (1g a.i./10a) is 9 (9: 90% to less than 100%). Moreover, the “herbicidal efficacy (growth inhibition rate level) Echinochloa crus-galli” value with Echinochloa crus-galli (5g a.i./10a) is reported as 9 (9: 90% to less than 100%). In addition, the “herbicidal efficacy (growth inhibition rate level) Monochoria vaginalis” value in the data set with Monochoria vaginalis (1g a.i./10a) was 8 (8: 80% to less than 90%). Further, in the data set with Monochoria vaginalis (5g a.i./10a), the “herbicidal efficacy (growth inhibition rate level) Monochoria vaginalis” value is reported as 9 (9: 90% to less than 100%). Moreover, the “herbicidal efficacy (growth inhibition rate level) Scirpus juncoides” value in the data set on Scirpus juncoides (1g a.i./10a) is 8 (8: 80% to less than 90%). Moreover, the “herbicidal efficacy (growth inhibition rate level) Scirpus juncoides” value with Scirpus juncoides (5g a.i./10a) is given as 8 (8: 80% to less than 90%). The “phytotoxicity (growth inhibition rate level) Rice plants” value with Rice plants (1g a.i./10a) is 0 (0 (exponent): 0% to less than 10% (growth inhibition rate)). The “phytotoxicity (growth inhibition rate level) Rice plants” value in the data set on Rice plants (5g a.i./10a) was 1 (1: 10% to less than 20%). In addition, the “herbicidal efficacy (growth inhibition rate level) Amaranthus retroflexus” value in the data set on Amaranthus retroflexus [1] (5g a.i./10a) is 10 (10: 100%). Moreover, the “herbicidal efficacy (growth inhibition rate level) Amaranthus retroflexus” value in the data set with Amaranthus retroflexus [1] (10g a.i./10a) is on record as 10 (10: 100%). In the data set on Chenopodium album [2] (5g a.i./10a), the “herbicidal efficacy (growth inhibition rate level) Chenopodium album” value is recorded as 10 (10: 100%). Moreover, the “herbicidal efficacy (growth inhibition rate level) Chenopodium album” value with Chenopodium album [2] (10g a.i./10a) was 10 (10: 100%). Also, the “herbicidal efficacy (growth inhibition rate level) Digitaria ciliaris” value in the data set with Digitaria ciliaris [3] (5g a.i./10a) is recorded as 10 (10: 100%). In addition, the “herbicidal efficacy (growth inhibition rate level) Digitaria ciliaris” value with Digitaria ciliaris [3] (10g a.i./10a) was 10 (10: 100%). Moreover, in the data set with Amaranthus retroflexus [4] (5g a.i./10a), the “herbicidal efficacy (growth inhibition rate level) Amaranthus retroflexus” value is listed as 10 (10: 100%). The “herbicidal efficacy (growth inhibition rate level) Amaranthus retroflexus” value with Amaranthus retroflexus [4] (10g a.i./10a) was 10 (10: 100%). The “herbicidal efficacy (growth inhibition rate level) Chenopodium album” value in the data set with Chenopodium album [5] (5g a.i./10a) is given as 10 (10: 100%). In the data set with Chenopodium album [5] (10g a.i./10a), the “herbicidal efficacy (growth inhibition rate level) Chenopodium album” value is listed as 10 (10: 100%). The “herbicidal efficacy (growth inhibition rate level) Digitaria ciliaris” value in the data set with Digitaria ciliaris [6] (5g a.i./10a) is given as 10 (10: 100%). Besides, in the data set on Digitaria ciliaris [6] (10g a.i./10a), the “herbicidal efficacy (growth inhibition rate level) Digitaria ciliaris” value is listed as 10 (10: 100%).
`N#Cc1cnn(-c2nn3c(c2Cl)CCCC3)c1NC(C1CC1)C1CC1` [Compound 10, 1-(3-chloro-4,5,6,7-tetrahydropyrazolo[1,5-a]pyridin-2-yl)-5-(dicyclopropylmethylamino)pyrazole-4-carbonitrile] came in with a melting point of 132 to 133 °C. Further, in the data set with Echinochloa crus-galli (1g a.i./10a), the “herbicidal efficacy (growth inhibition rate level) Echinochloa crus-galli” value is reported as 9 (9: 90% to less than 100%). Moreover, the “herbicidal efficacy (growth inhibition rate level) Echinochloa crus-galli” value with Echinochloa crus-galli (5g a.i./10a) is listed as 9 (9: 90% to less than 100%). The “herbicidal efficacy (growth inhibition rate level) Monochoria vaginalis” value in the data set with Monochoria vaginalis (1g a.i./10a) is 8 (8: 80% to less than 90%). Further, in the data set on Monochoria vaginalis (5g a.i./10a), the “herbicidal efficacy (growth inhibition rate level) Monochoria vaginalis” value is given as 9 (9: 90% to less than 100%). Besides, the “herbicidal efficacy (growth inhibition rate level) Scirpus juncoides” value in the data set on Scirpus juncoides (1g a.i./10a) is 8 (8: 80% to less than 90%). Moreover, the “herbicidal efficacy (growth inhibition rate level) Scirpus juncoides” value with Scirpus juncoides (5g a.i./10a) is reported as 9 (9: 90% to less than 100%). For the same compound, the “phytotoxicity (growth inhibition rate level) Rice plants” value in the data set on Rice plants (1g a.i./10a) is recorded as 0 (0 (exponent): 0% to less than 10% (growth inhibition rate)). For the same compound, the “phytotoxicity (growth inhibition rate level) Rice plants” value with Rice plants (5g a.i./10a) was 1 (1: 10% to less than 20%). Moreover, the “herbicidal efficacy (growth inhibition rate level) Amaranthus retroflexus” value in the data set with Amaranthus retroflexus [1] (5g a.i./10a) is on record as 10 (10: 100%). Also, the “herbicidal efficacy (growth inhibition rate level) Amaranthus retroflexus” value in the data set on Amaranthus retroflexus [1] (10g a.i./10a) was 10 (10: 100%). Moreover, the “herbicidal efficacy (growth inhibition rate level) Chenopodium album” value in the data set on Chenopodium album [2] (5g a.i./10a) was 10 (10: 100%). Further, in the data set on Chenopodium album [2] (10g a.i./10a), the “herbicidal efficacy (growth inhibition rate level) Chenopodium album” value is listed as 10 (10: 100%). For the same compound, the “herbicidal efficacy (growth inhibition rate level) Digitaria ciliaris” value in the data set with Digitaria ciliaris [3] (5g a.i./10a) is reported as 10 (10: 100%). Besides, the “herbicidal efficacy (growth inhibition rate level) Digitaria ciliaris” value in the data set on Digitaria ciliaris [3] (10g a.i./10a) is 10 (10: 100%). Moreover, the “herbicidal efficacy (growth inhibition rate level) Amaranthus retroflexus” value in the data set with Amaranthus retroflexus [4] (5g a.i./10a) is listed as 10 (10: 100%). Further, the “herbicidal efficacy (growth inhibition rate level) Amaranthus retroflexus” value in the data set on Amaranthus retroflexus [4] (10g a.i./10a) is given as 10 (10: 100%). In addition, the “herbicidal efficacy (growth inhibition rate level) Chenopodium album” value with Chenopodium album [5] (5g a.i./10a) is on record as 10 (10: 100%). Also, in the data set with Chenopodium album [5] (10g a.i./10a), the “herbicidal efficacy (growth inhibition rate level) Chenopodium album” value is reported as 10 (10: 100%). The “herbicidal efficacy (growth inhibition rate level) Digitaria ciliaris” value in the data set with Digitaria ciliaris [6] (5g a.i./10a) is on record as 10 (10: 100%). In addition, in the data set on Digitaria ciliaris [6] (10g a.i./10a), the “herbicidal efficacy (growth inhibition rate level) Digitaria ciliaris” value is 10 (10: 100%).
